# Where two headings read alike, the source gives them in different places.
# How the values were obtained:
# Experiment in all cases: MIC determination
# Assay type in all cases: cell-based
# S. aureus ATCC 29213 = conditions: Staphylococcus aureus
# S. aureus BAA 977 iErmA = conditions: Staphylococcus aureus, BAA977
# [1] = test system: S. aureus MP-549 msr(a) USA 300; conditions: Staphylococcus aureus, USA300, S. aureus MP-549 msr(a) USA 300
# [2] = test system: S. aureus MP-513 clinical cErm; conditions: Staphylococcus aureus
# [3] = test system: S. aureus UNT96, NRS710, MP-618 (USA 100, Erythro >8); conditions: Staphylococcus aureus
# [4] = test system: S. aureus UNT-146, MP-620, TP 506 (ermA); conditions: Staphylococcus aureus
# [5] = test system: S. aureus UNT-120, MP-619, NRS22 (USA 600, GISA); conditions: Staphylococcus aureus
# S. pneumoniae ATCC 49619 = conditions: Streptococcus pneumoniae, ATCC49619; S. pneumoniae ATCC 49619; read-out: MIC
# [6] = test system: S. pneumoniae UNT-038, MP-626, TP 160 (mefA); conditions: Streptococcus pneumoniae
# [7] = test system: S. pneumoniae UNT-039, MP-627, TP1517 (mefA); conditions: Streptococcus pneumoniae
# S. pyogenes ATCC 19615 = conditions: Streptococcus pyogenes, ATCC19615; S. pyogenes ATCC 19615; read-out: MIC
# [8] = test system: S. pyogenes UNT-014, MP-625 MacRes; conditions: Streptococcus pyogenes; S. pyogenes UNT-014, MP-625 MacRes; read-out: MIC
# E. faecalis ATCC 29212 = conditions: Enterococcus faecalis
# E. faecalis UNT-047 VRE = conditions: Enterococcus faecalis, VRE
# K. pneumoniae ATCC 10031 = conditions: Klebsiella pneumoniae, ATCC10031
# E. coli ATCC 25922 = conditions: Escherichia coli, ATCC25922
# E. coli MP-9 ΔTolC = conditions: Escherichia coli
# P. aeruginosa ATCC 27853 = conditions: Pseudomonas aeruginosa, ATCC27853
# [9] = test system: S. aureus Micromyx USA 300; conditions: Staphylococcus aureus, USA300; S. aureus Micromyx USA 300; read-out: MIC
# [10] = test system: S. pneumoniae TP 1579 (ermB + tet(M, O)); conditions: Streptococcus pneumoniae
# [11] = test system: E. faecalis MMX 847 Macrolide-Resistant; conditions: Enterococcus faecalis
# [12] = test system: E. coli MMX TolC parent strain; conditions: Escherichia coli
# E. coli MMX 0121 ΔTolC = conditions: Escherichia coli
# E. coli GUEST131 (NDM-1) = conditions: Escherichia coli
# [13] = test system: P. aeruginosa MMX Mex parent strain; conditions: Pseudomonas aeruginosa
# [14] = test system: P. aeruginosa MMX 3476 Δmex; conditions: Pseudomonas aeruginosa
# [15] = ATCC29213, S. aureus ATCC 29213, read-out: MIC
Compound,MIC (S. aureus ATCC 29213; [15]),MIC (S. aureus BAA 977 iErmA),MIC [1],MIC [2],MIC [3],MIC [4],MIC [5],MIC (S. pneumoniae ATCC 49619),MIC [6],MIC [7],MIC (S. pyogenes ATCC 19615),MIC [8],MIC (E. faecalis UNT-047 VRE),MIC (E. coli ATCC 25922),MIC (E. coli MP-9 ΔTolC),MIC (P. aeruginosa ATCC 27853),MIC (K. pneumoniae ATCC 10031),further results
CSC1O[C@H]([C@H](NC(=O)[C@H]2NC[C@@H]3CN(Cc4ccccc4)CCO[C@H]32)[C@H](C)Cl)C(O)[C@@H](O)[C@H]1O (some centres unmarked) [FSA-502002],2 µg/mL,2 µg/mL,2 µg/mL,> 64 µg/mL,> 64 µg/mL,> 64 µg/mL,> 64 µg/mL,0.25 µg/mL,0.25 µg/mL,0.125 µg/mL,0.125 µg/mL,0.125 µg/mL,> 64 µg/mL,> 64 µg/mL,> 64 µg/mL,> 64 µg/mL,–,"MIC (E. faecalis ATCC 29212; ATCC29212, read-out: MIC): 8 µg/mL; MIC (K. pneumoniae ATCC 10031; K. pneumoniae ATCC 10031, read-out: MIC): 64 µg/mL"
"CCC[C@@H]1C[C@@H](C(=O)N[C@@H]([C@H]2O[C@H](SC)[C@H](O)[C@@H](O)[C@H]2O)[C@H](C)Cl)N(C)C1 [Clindamycin, clindamycin, reference compound]",–,–,–,> 64 µg/mL,–,–,–,–,≤ 0.0313 µg/mL,≤ 0.0313 µg/mL,–,≤ 0.0313 µg/mL,–,–,–,> 64 µg/mL,–,MIC [9]: 0.25 µg/mL; MIC [10]: ≤ 0.0313 µg/mL; MIC [11]: > 64 µg/mL; MIC [12]: > 64 µg/mL; MIC (E. coli MMX 0121 ΔTolC): 4 µg/mL; MIC (E. coli GUEST131 (NDM-1)): > 3 µg/mL; MIC [13]: > 64 µg/mL; MIC [14]: > 64 µg/mL
CSC1O[C@H]([C@H](NC(=O)[C@H]2NC[C@@H]3CN(Cc4ccc(N)nc4)CCO[C@H]32)[C@H](C)Cl)C(O)[C@@H](O)[C@H]1O (some centres unmarked) [FSA-504050],32 µg/mL,64 µg/mL,32 µg/mL,> 64 µg/mL,–,–,–,–,–,–,–,–,–,> 64 µg/mL,> 64 µg/mL,> 64 µg/mL,> 64 µg/mL,–
CSC1O[C@H]([C@H](NC(=O)[C@H]2NC[C@@H]3C[C@H]4OC(C)(C)O[C@H]4CO[C@H]32)[C@H](C)Cl)C(O)[C@@H](O)[C@H]1O (some centres unmarked) [FSA-501099],–,> 64 µg/mL,> 64 µg/mL,> 64 µg/mL,> 64 µg/mL,> 64 µg/mL,> 64 µg/mL,8 µg/mL,16 µg/mL,2 µg/mL,16 µg/mL,29 µg/mL,> 64 µg/mL,> 64 µg/mL,> 64 µg/mL,> 64 µg/mL,> 64 µg/mL,MIC (S. aureus ATCC 29213; ATCC29213): > 64 µg/mL; MIC (E. faecalis ATCC 29212; ATCC29212): > 64 µg/mL
C=CCOC(=O)N1CCO[C@@H]2[C@H](CN[C@@H]2C(=O)N[C@H]([C@H](C)Cl)[C@H]2OC(SC)[C@H](O)[C@H](O)C2O)C1 (some centres unmarked) [FSA-503073],64 µg/mL,64 µg/mL,32 µg/mL,> 64 µg/mL,–,–,–,–,–,–,–,–,–,> 64 µg/mL,> 64 µg/mL,> 64 µg/mL,> 64 µg/mL,–
